Values quoted from earlier work, collected in patent publication US20110082545A1, “DRUG ELUTING BREAST IMPLANT COVER OR COATING” (LIPOSE CORPORATION, priority 2009, published 2011).

Test system: capsular contracture
Conditions: administered orally

COc1cc(C(=O)NS(=O)(=O)c2ccccc2C)ccc1Cc1cn(C)c2ccc(NC(=O)OC3CCCC3)cc12 [zafirlukast]
ability to moderate the capsular contracture: demonstrated the ability to moderate the capsular contracture
